Results: patent US10414775B2 (Merck Sharp & Dohme Corp., priority 2016, dated 2019)
Where a name gives a salt, the structure may show the parent alone.

The molecules below were run against T1, Human CYP8B1 (Homo sapiens, UniProt Q9UNU6) (assay: Human Cyp8B1 Liver Microsome Assay). Details: human liver microsomes; substrate 7α-hydroxy-4-cholesten-3-one, NADPH; 30 min pre-incubation, 45 min reaction; RapidFire MS readout.
T1 construct: tissue Xenotech; host or cells: human liver microsomes
T1 sequence (Q9UNU6 1-501): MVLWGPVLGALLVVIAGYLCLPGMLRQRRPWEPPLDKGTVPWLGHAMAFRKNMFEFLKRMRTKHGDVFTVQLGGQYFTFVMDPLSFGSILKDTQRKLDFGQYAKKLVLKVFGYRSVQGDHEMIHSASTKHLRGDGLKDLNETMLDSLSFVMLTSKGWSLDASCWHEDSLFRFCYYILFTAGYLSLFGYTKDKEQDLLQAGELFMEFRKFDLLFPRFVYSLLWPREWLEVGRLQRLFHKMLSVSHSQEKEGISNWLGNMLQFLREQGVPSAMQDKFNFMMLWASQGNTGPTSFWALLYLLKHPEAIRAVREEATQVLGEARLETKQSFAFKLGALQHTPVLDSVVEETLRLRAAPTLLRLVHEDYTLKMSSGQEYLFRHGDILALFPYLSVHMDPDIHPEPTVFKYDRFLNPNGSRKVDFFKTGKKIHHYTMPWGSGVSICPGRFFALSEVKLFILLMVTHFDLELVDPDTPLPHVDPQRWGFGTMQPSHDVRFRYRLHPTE
Format: biochemical
Experimental: Human Cyp8B1 Liver Microsome Assay To a 384 well polypropylene plate (Corning 3656), 250 nl of inhibitor in 100% DMSO (1.25% final DMSO concentration) was pre-plated using an Echo liquid handler (Labcyte Inc.). Human liver microsomes (Xenotech) were diluted in of 0.1 M phosphate buffer, pH 7.4, at a concentration of 65 μg/ml and 15 μL was added to the 384 well plate. The plates were incubated at ambient room temperature for 30 minutes. After pre-incubation with inhibitor, the reaction was initiated by adding 5 μl of substrate solution (4.0 μM 7α-hydroxy-4-cholesten-3-one(Toronto Research Chemicals), 2 mM of NADPH (Sigma), 0.1 M phosphate buffer (pH 7.4). The reaction was carried out for 45 minutes at ambient room temperature and was quenched by the addition of 50 μl of acetonitrile+0.1% vol/vol formic acid (FA)+300 nM 7α-hydroxy-4-cholesten-3-one-d7 (Toronto Research Chemicals). The plates were sealed and centrifuged at 3000 rpm for 5 minutes. Plates were loaded onto the Agilent RapidFire RF300 HTMS system, wherein samples were sipped for 600 ms, and the sip sensor detection signals the diversion of sample from the loop onto a C4 solid phase extraction (SPE) cartridge, where salts are washed off for 2500 ms with a mobile phase of water with 0.1% vol/vol FA at a flow rate of 1.5 ml/min. The column path is switched, and the sample is eluted off the cartridge and flowed into the mass spectrometer for 3000 ms with a mobile phase of acetonitrile and 0.1% vol/vol FA at a flow rate of 1.25 ml/min. The aspirator tip was washed separately with water and acetonitrile between sample aspirations (each for 600 ms) to minimize carryover contamination. Mass spectrometry was carried out using a Sciex API4000 triple quadrupole mass spectrometer (Applied Biosystems, Concord, ON, Canada) equipped with electrospray ionization (ESI) operated in the positive-ion mode. The product 7α, 12α-dihydroxy-4-cholesten-3-one and internal standard 7α-hydroxy-4-cholsten-3-one-d7 were detected using multiple reaction monitoring (MRM) with Q1/Q3 transitions at m/z 417.3 to 381.3 and m/z 408.3 to 390.3, respectively, with a dwell time of 100 ms and a collision energy of 24 V for each transition. The mass spectrometer used an ESI voltage of 5000 V and a source temperature of 650° C. Extracted ion chromatograms for each transition were integrated and processed using the RapidFire Integrator software. The data for each well were normalized by monitoring product conversion with the ratio of AUCproduct/(AUCinternal standard). The data was then fitted to a four parameter logistic fit using ActivityBase Software to calculate an IC50 of the inhibitor.

SMILES	IC50 [nM]
C[C@@H]1CN(c2ccnc3c(F)c(Cl)ccc23)CC[C@@H]1C(=O)N1CCn2c(nnc2C(F)(F)F)C1 [Example 20, 7-chloro-8-fluoro-4-[(3S,4S)-3-methyl-4-{[3-(trifluoromethyl)-5,6-dihydro[1,2,4]tria-zolo[4,3-a]pyrazin-7(8H)-yl]carbonyl}piper-idin-1-yl]quinolinium trifluoroacetate]	14
C[C@@H]1CN(c2ccnc3cc(Cl)ccc23)CC[C@@H]1C(=O)N1CCn2c(nnc2C(F)(F)F)C1 [Example 21, [(3S,4S)-1-(7-chloroquinolin-4-yl)-3-methylpiperidin-4-yl][3-(trifluoromethyl)-5,6-dihydro[1,2,4]tria-zolo[4,3-a]pyrazin-7(8H)-yl]methanone]	6.3
C[C@@H]1CN(c2ccnc3cc(F)ccc23)CC[C@@H]1C(=O)N1CCn2c(nnc2C(F)(F)F)C1 [Example 22, [(3S,4S)-1-(7-fluoroquinolin-4-yl)-3-methylpiperidin-4-yl][3-(trifluoromethyl)-5,6-dihydro[1,2,4]tria-zolo[4,3-a]pyrazin-7(8H)-yl]methanone]	19
COc1ccc2c(N3CC[C@H](C(=O)N4CCn5c(nnc5C(F)(F)F)C4)[C@H](C)C3)ccnc2c1 [Example 23, [(3S,4S)-1-(7-methoxyquinolin-4-yl)-3-methylpiperidin-4-yl][3-(trifluoromethyl)-5,6-dihydro[1,2,4]tria-zolo[4,3-a]pyrazin-7(8H)-yl]methanone]	237
C[C@@H]1CN(c2ccnc3cc(C#N)ccc23)CC[C@@H]1C(=O)N1CCn2c(nnc2C(F)(F)F)C1 [Example 24, 4-[(3S,4S)-3-methyl-4-{[3-(trifluoromethyl)-5,6-dihydro[1,2,4]tria-zolo[4,3-a]pyrazin-7(8H)-yl]carbonyl}piper-idin-1-yl]quinoline-7-carbonitrile]	8.4
COc1cnc2c(N3CC[C@H](C(=O)N4CCn5c(nnc5C(F)(F)F)C4)[C@H](C)C3)ccnc2c1 [Example 25, [(3S,4S)-1-(7-methoxy-1,5-naphthyridin-4-yl)-3-methylpiperidin-4-yl][3-(trifluoromethyl)-5,6-dihydro[1,2,4]tria-zolo[4,3-a]pyrazin-7(8H)-yl]methanone]	307
COc1ccc2nccc(N3CC[C@H](C(=O)N4CCn5c(nnc5C(F)(F)F)C4)[C@H](C)C3)c2n1 [Example 26, [(3S,4S)-1-(6-methoxy-1,5-naphthyridin-4-yl)-3-methylpiperidin-4-yl][3-(trifluoromethyl)-5,6-dihydro[1,2,4]tria-zolo[4,3-a]pyrazin-7(8H)-yl]methanone]	18
Cc1ccc2c(N3CC[C@H](C(=O)N4CCn5c(nnc5C(F)(F)F)C4)[C@H](C)C3)ccnc2n1 [Example 27, [(3S,4S)-3-methyl-1-(7-methyl-1,8-naphthyridin-4-yl)piperidin-4-yl][3-(trifluoromethyl)-5,6-dihydro[1,2,4]tria-zolo[4,3-a]pyrazin-7(8H)-yl]methanone]	6700
C[C@@H]1CN(c2ccnc3cc(C4CC4)ccc23)CC[C@@H]1C(=O)N1CCn2c(nnc2C(F)(F)F)C1 [Example 28, 7-cyclopropyl-4-[(3S,4S)-3-methyl-4-{[3-(trifluoromethyl)-5,6-dihydro[1,2,4]tria-zolo[4,3-a]pyrazin-7(8H)-yl]carbonyl}piper-idin-1-yl]quinolinium chloride]	0.66
C[C@@H]1CN(c2ccnc3cc(OC(F)(F)F)ccc23)CC[C@@H]1C(=O)N1CCn2c(nnc2C(F)(F)F)C1 [Example 29, {(3S,4S)-3-methyl-1-(7-(trifluoromethoxy)quinolin-4-yl]piperidin-4-yl}[3-(trifluoromethyl)-5,6-dihydro[1,2,4]tria-zolo[4,3-a]pyrazin-7(8H)-yl]methanone]	0.34
C[C@@H]1CN(c2ccnc3cc(OCc4ccccc4)ccc23)CC[C@@H]1C(=O)N1CCn2c(nnc2C(F)(F)F)C1 [Example 30]	3.91
C[C@@H]1CN(c2ccnc3nc(C(F)(F)F)ccc23)CC[C@@H]1C(=O)N1CCn2c(nnc2C(F)(F)F)C1 [Example 31, {(3S,4S)-3-methyl-1-[7-(trifluoromethyl)-1,8-naphthyridin-4-yl]piperidin-4-yl}[3-(trifluoromethyl)-5,6-dihydro[1,2,4]tria-zolo[4,3-a]pyrazin-7(8H)-yl]methanone]	2700
C[C@@H]1CN(c2ccnc3c(Cl)c(Cl)ccc23)CC[C@@H]1C(=O)N1CCn2c(nnc2C(F)(F)F)C1 [Example 32, ((3S,4S)-1-(7,8-dichloroquinolin-4-yl)-3-methylpiperidin-4-yl)(3-(trifluoromethyl)-5,6-dihydro-[1,2,4]triazolo[4,3-a]pyrazin-7(8H)-yl)methanone]	111
C[C@@H]1CN(c2ccnc3cc(OC(F)F)ccc23)CC[C@@H]1C(=O)N1CCn2c(nnc2C(F)(F)F)C1 [Example 33, {(3S,4S)-1-[7-(difluoromethoxy)quinolin-4-yl]-3-methylpiperidin-4-yl}[3-(trifluoromethyl)-5,6-dihydro[1,2,4]triazolo[4,3-a]pyrazin-7(8H)-yl]methanone]	8.3
COc1ccc2c(N3CC[C@H](C(=O)N4CCn5c(nnc5C(F)(F)F)C4)[C@H](C)C3)c(C3CC3)cnc2c1 [Example 34, [(3S,4S)-1-(3-cyclopropyl-7-methoxyquinolin-4-yl)-3-methylpiperidin-4-yl][3-(trifluoromethyl)-5,6-dihydro[1,2,4]triazolo[4,3-a]pyrazin-7(8H)-yl]methanone]	0.67
Cc1cnc2cc(C(F)(F)F)ccc2c1N1CC[C@H](C(=O)N2CCn3c(nnc3C(F)(F)F)C2)[C@H](C)C1 [Example 35, {(3S,4S)-3-methyl-1-[3-methyl-7-(trifluoromethyl)quinolin-4-yl]piperidin-4-yl}[3-(trifluoromethyl)-5,6-dihydro[1,2,4]triazolo[4,3-a]pyrazin-7(8H)-yl]methanone]	0.17
C[C@@H]1CN(c2c(Cl)cnc3cc(OC(F)(F)F)ccc23)CC[C@@H]1C(=O)N1CCn2c(nnc2C(F)(F)F)C1 [Example 36, {(3S,4S)-1-[3-chloro-7-(trifluoromethoxy)quinolin-4-yl]-3-methylpiperidin-4-yl}[3-(trifluoromethyl)-5,6-dihydro[1,2,4]triazolo[4,3-a]pyrazin-7(8H)-yl]methanone]	0.35
C[C@@H]1CN(c2c(Cl)cnc3nc(C(F)(F)F)ccc23)CC[C@@H]1C(=O)N1CCn2c(nnc2C(F)(F)F)C1 [Example 37, {(3S,4S)-1-[3-chloro-7-(trifluoromethyl)-1,8-naphthyridin-4-yl]-3-methylpiperidin-4-yl}[3-(trifluoromethyl)-5,6-dihydro[1,2,4]triazolo[4,3-a]pyrazin-7(8H)-yl]methanone]	1.3
C[C@@H]1CN(c2ccnc3cc(O)ccc23)CC[C@@H]1C(=O)N1CCn2c(nnc2C(F)(F)F)C1 [Example 38, [(3S,4S)-1-(7-hydroxyquinolin-4-yl)-3-methylpiperidin-4-yl][3-(trifluoromethyl)-5,6-dihydro[1,2,4]triazolo[4,3-a]pyrazin-7(8H)-yl]methanone]	2890
C[C@@H]1CN(c2c(C(N)=O)cnc3cc(OCC4CC4)ccc23)CC[C@@H]1C(=O)N1CCn2c(nnc2C(F)(F)F)C1 [Example 39, 7-(cyclopropylmethoxy)-4-[(3S,4S)-3-methyl-4-{[3-(trifluoromethyl)-5,6-dihydro[1,2,4]triazolo[4,3-a]pyrazin-7(8H)-yl]carbonyl}piperidin-1-yl]quinoline-3-carboxamide]	5.29
